Reference: article PMC12621043, “Un-LOK-ing a New Approach for Conformational Selective Targeting of STK10 (LOK)” (ACS Medicinal Chemistry Letters, 2025)
Values joined by “and” are separate entries in the source; they are usually repeats but may differ in a detail not shown here. Equal values may be shown once.

Key:
[1] = biological target: T1, DYRK1AA (Homo sapiens, UniProt Q13627); assay: DSF Tm panel; format: binding; conditions: 10 μM compound
T1 construct: purchased in-house DSF kinase panel (SGC-style construct names; the trailing letter is the construct ID)

[2] = biological target: T2, MARK4A (Homo sapiens, UniProt Q96L34); assay: DSF Tm panel; format: binding; conditions: 10 μM compound
T2 construct: purchased in-house DSF kinase panel (SGC-style construct names; the trailing letter is the construct ID)

[3] = tested on: RPS6KA1A; assay: DSF Tm panel; format: binding; conditions: 10 μM compound
[4] = biological target: T3, DAPK3 (DAPK3A) (Homo sapiens, UniProt O43293); assay: DSF Tm panel; format: binding; conditions: 10 μM compound
T3 construct: purchased in-house DSF kinase panel (SGC-style construct names; the trailing letter is the construct ID)
T3 sequence (O43293 whole entry): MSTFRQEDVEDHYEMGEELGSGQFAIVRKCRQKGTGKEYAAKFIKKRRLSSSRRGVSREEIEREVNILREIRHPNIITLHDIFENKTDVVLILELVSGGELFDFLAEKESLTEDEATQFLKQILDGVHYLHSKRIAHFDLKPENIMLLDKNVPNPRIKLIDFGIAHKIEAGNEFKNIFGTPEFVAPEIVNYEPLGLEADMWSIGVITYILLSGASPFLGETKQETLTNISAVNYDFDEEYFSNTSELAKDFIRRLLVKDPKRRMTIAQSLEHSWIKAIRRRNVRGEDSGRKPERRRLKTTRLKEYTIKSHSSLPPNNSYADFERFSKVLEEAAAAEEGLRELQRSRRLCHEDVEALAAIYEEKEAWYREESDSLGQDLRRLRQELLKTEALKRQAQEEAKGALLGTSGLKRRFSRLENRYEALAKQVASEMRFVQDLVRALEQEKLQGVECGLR

[5] = tested on: CDC42BPAA; assay: DSF Tm panel; format: binding; conditions: 10 μM compound
[6] = biological target: T4, CDKL1A (Homo sapiens, UniProt Q00532); assay: DSF Tm panel; format: binding; conditions: 10 μM compound
T4 construct: purchased in-house DSF kinase panel (SGC-style construct names; the trailing letter is the construct ID)
T4 sequence (Q00532 1-303): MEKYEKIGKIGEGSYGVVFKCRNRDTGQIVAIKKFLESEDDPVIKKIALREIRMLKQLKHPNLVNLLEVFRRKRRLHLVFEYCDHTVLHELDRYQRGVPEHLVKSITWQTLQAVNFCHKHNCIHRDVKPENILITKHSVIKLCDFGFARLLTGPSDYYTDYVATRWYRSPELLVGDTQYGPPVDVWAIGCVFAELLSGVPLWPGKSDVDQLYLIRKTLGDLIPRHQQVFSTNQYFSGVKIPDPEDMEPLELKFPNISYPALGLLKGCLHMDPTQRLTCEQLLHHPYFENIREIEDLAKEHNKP

[7] = biological target: T5, MAPK1A (Homo sapiens, UniProt P28482); assay: DSF Tm panel; format: binding; conditions: 10 μM compound
T5 construct: purchased in-house DSF kinase panel (SGC-style construct names; the trailing letter is the construct ID)
T5 sequence (P28482 whole entry): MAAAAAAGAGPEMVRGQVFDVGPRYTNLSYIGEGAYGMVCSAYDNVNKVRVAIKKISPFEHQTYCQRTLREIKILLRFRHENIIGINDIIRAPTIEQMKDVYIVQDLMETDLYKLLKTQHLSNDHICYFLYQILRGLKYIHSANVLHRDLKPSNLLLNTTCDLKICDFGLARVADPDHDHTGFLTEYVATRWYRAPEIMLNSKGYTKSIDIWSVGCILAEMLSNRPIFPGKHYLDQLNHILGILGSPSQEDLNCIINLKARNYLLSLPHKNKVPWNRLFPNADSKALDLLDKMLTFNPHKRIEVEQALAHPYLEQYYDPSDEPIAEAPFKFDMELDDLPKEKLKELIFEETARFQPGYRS

[8] = biological target: T6, MAP3K5A (Homo sapiens, UniProt Q99683); assay: DSF Tm panel; format: binding; conditions: 10 μM compound
T6 construct: purchased in-house DSF kinase panel (SGC-style construct names; the trailing letter is the construct ID)
T6 sequence (Q99683 659-951): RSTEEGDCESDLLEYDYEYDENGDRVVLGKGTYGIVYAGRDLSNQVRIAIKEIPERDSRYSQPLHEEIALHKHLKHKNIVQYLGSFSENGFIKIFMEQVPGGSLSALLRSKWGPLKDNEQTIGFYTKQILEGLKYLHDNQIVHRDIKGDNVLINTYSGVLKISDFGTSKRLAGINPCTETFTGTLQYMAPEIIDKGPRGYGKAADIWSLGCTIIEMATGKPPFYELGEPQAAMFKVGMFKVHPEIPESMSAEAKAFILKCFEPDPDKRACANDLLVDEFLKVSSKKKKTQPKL

[9] = biological target: T7, MAPK14A (Homo sapiens, UniProt Q16539); assay: DSF Tm panel; format: binding; conditions: 10 μM compound
T7 construct: purchased in-house DSF kinase panel (SGC-style construct names; the trailing letter is the construct ID)
T7 sequence (Q16539 whole entry): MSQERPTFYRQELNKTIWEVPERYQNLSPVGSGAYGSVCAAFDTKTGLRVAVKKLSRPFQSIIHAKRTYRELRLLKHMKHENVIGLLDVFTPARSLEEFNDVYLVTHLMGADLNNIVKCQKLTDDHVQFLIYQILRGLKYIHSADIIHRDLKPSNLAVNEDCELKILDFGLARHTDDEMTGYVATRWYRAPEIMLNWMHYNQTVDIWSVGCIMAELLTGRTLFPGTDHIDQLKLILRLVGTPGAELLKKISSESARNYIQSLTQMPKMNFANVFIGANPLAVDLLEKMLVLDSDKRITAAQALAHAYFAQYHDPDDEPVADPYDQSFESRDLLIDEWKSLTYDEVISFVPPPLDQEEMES

[10] = biological target: T8, DCAMKL1A (Homo sapiens, UniProt O15075); assay: DSF Tm panel; format: binding; conditions: 10 μM compound
T8 construct: purchased in-house DSF kinase panel (SGC-style construct names; the trailing letter is the construct ID)
T8 sequence (O15075 372-649): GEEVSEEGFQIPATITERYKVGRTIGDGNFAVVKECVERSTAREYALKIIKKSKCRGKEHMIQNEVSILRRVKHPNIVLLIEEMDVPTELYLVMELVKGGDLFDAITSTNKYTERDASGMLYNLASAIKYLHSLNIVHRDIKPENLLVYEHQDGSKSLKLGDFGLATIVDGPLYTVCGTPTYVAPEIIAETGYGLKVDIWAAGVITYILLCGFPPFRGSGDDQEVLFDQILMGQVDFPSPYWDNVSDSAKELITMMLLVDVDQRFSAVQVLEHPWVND

[11] = biological target: T9, PIM1 (PIM1A) (Homo sapiens, UniProt P11309); assay: DSF Tm panel; format: binding; conditions: 10 μM compound
T9 construct: purchased in-house DSF kinase panel (SGC-style construct names; the trailing letter is the construct ID)
T9 sequence (P11309 whole entry): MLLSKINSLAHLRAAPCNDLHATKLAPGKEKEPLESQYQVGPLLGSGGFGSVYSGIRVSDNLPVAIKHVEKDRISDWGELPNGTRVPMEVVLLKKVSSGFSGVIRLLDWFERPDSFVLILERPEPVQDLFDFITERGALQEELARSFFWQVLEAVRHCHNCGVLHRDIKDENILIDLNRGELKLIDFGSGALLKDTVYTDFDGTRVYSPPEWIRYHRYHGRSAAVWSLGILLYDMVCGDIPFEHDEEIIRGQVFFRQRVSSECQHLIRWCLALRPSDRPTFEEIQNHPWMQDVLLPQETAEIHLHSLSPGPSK

[12] = biological target: T10, SLK (Homo sapiens, UniProt Q9H2G2); assay: NanoBRET target engagement assay; format: cell-based; design: has a greater impact on the full-length protein than on the kinase domains; host or cells: HEK293T (ATCC CRL-3216); conditions: HEK293T cells
[13] = biological target: T11, EPHA2 (EPHA2A) (Homo sapiens, UniProt P29317); assay: DSF Tm panel; format: binding; conditions: 10 μM compound
T11 construct: purchased in-house DSF kinase panel (SGC-style construct names; the trailing letter is the construct ID)
T11 sequence (P29317 596-900): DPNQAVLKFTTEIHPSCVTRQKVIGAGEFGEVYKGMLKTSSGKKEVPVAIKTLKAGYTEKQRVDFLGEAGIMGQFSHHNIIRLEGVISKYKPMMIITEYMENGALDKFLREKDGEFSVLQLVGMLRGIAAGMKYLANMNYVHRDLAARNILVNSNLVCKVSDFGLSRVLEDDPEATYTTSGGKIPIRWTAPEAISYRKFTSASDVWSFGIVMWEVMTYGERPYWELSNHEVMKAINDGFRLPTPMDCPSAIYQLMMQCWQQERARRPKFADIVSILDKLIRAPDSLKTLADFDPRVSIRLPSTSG

[14] = biological target: T12, BMP2KA (Homo sapiens, UniProt Q9NSY1); assay: DSF Tm panel; format: binding; conditions: 10 μM compound
T12 construct: purchased in-house DSF kinase panel (SGC-style construct names; the trailing letter is the construct ID)
T12 sequence (Q9NSY1 38-345): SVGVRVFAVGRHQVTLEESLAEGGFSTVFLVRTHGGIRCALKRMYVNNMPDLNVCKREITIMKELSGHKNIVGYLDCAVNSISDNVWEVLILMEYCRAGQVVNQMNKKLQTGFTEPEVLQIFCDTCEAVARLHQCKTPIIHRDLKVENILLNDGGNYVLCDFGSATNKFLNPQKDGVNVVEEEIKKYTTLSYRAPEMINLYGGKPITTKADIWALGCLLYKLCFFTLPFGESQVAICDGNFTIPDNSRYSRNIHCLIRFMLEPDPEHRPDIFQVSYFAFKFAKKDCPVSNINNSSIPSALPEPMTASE

[15] = biological target: T13, CAMK2DA (Homo sapiens, UniProt Q13557); assay: DSF Tm panel; format: binding; conditions: 10 μM compound
T13 construct: purchased in-house DSF kinase panel (SGC-style construct names; the trailing letter is the construct ID)
T13 sequence (Q13557 11-309): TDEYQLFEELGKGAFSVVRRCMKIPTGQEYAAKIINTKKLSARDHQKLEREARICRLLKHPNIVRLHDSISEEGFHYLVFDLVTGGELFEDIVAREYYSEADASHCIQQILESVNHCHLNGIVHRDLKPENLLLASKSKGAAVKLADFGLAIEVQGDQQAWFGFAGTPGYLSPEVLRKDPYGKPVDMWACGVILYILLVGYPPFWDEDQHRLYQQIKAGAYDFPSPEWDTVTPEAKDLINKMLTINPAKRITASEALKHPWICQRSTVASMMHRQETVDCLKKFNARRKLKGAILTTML

[16] = biological target: T10, SLK; assay: DSF Tm panel; format: binding; design: purchased in-house DSF kinase panel (SGC-style construct names; the trailing letter is the construct ID); conditions: 10 μM compound
[17] = biological target: T14, MARK3A (Homo sapiens, UniProt P27448); assay: DSF Tm panel; format: binding; conditions: 10 μM compound
T14 construct: purchased in-house DSF kinase panel (SGC-style construct names; the trailing letter is the construct ID)
T14 sequence (P27448 56-307): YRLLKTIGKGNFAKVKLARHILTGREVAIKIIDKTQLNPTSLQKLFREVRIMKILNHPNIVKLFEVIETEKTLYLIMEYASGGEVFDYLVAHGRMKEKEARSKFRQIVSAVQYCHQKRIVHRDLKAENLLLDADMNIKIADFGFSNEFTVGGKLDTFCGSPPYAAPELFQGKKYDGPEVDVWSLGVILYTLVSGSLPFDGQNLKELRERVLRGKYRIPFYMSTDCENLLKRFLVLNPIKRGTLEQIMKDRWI

[18] = biological target: T15, VRK1A (Homo sapiens, UniProt Q99986); assay: DSF Tm panel; format: binding; conditions: 10 μM compound
T15 construct: purchased in-house DSF kinase panel (SGC-style construct names; the trailing letter is the construct ID)
T15 sequence (Q99986 1-396): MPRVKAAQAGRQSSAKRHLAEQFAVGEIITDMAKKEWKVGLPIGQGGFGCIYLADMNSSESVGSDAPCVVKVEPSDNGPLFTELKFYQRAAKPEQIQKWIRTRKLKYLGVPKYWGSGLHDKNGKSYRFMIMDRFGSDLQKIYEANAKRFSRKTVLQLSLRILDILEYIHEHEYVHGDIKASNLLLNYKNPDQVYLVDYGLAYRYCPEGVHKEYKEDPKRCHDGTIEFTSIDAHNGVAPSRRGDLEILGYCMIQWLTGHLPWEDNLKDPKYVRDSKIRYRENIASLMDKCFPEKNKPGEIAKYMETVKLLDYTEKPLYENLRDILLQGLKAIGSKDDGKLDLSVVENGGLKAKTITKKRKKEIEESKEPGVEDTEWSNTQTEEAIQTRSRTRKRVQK

[19] = biological target: T16, STK10 (Homo sapiens, UniProt O94804); assay: PhosphoSens in vitro activity assay; format: biochemical; conditions: ATP 160 μM
T16 construct: purchased in-house DSF kinase panel (SGC-style construct names; the trailing letter is the construct ID)
T16 sequence (O94804 18-317 limits assumed): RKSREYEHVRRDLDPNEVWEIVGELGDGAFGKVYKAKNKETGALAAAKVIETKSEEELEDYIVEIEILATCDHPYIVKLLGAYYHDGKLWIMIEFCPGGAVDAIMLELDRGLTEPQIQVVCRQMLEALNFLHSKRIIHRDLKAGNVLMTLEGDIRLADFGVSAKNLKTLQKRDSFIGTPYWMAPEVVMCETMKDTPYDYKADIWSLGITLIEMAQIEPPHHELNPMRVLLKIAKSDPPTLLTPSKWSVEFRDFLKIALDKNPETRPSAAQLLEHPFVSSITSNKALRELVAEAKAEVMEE

[20] = biological target: T17, FESA (Homo sapiens, UniProt P07332); assay: DSF Tm panel; format: binding; conditions: 10 μM compound
T17 construct: purchased in-house DSF kinase panel (SGC-style construct names; the trailing letter is the construct ID)
T17 sequence (P07332 whole entry): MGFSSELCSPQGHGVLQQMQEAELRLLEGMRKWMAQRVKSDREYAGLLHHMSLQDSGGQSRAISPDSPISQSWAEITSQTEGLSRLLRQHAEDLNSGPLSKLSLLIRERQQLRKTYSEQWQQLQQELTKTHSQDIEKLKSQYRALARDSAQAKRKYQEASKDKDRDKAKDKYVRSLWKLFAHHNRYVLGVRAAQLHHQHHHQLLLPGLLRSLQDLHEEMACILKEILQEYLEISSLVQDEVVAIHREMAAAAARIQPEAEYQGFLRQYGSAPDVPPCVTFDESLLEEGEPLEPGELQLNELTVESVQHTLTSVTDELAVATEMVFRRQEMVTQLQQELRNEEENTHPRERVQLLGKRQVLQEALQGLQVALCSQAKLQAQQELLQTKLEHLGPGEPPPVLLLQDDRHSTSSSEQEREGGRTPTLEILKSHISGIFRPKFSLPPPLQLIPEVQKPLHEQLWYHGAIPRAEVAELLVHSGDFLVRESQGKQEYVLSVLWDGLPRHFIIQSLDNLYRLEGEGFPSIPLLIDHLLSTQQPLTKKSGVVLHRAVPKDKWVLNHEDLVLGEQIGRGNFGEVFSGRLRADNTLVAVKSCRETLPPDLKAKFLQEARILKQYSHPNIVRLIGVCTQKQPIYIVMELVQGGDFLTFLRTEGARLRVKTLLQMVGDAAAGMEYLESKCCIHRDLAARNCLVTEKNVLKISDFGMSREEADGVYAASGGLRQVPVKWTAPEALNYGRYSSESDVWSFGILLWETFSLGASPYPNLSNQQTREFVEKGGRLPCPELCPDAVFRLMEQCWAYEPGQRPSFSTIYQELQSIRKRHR

[21] = biological target: T18, MAPK10A (Homo sapiens, UniProt P53779); assay: DSF Tm panel; format: binding; conditions: 10 μM compound
T18 construct: purchased in-house DSF kinase panel (SGC-style construct names; the trailing letter is the construct ID)
T18 sequence (P53779 39-402): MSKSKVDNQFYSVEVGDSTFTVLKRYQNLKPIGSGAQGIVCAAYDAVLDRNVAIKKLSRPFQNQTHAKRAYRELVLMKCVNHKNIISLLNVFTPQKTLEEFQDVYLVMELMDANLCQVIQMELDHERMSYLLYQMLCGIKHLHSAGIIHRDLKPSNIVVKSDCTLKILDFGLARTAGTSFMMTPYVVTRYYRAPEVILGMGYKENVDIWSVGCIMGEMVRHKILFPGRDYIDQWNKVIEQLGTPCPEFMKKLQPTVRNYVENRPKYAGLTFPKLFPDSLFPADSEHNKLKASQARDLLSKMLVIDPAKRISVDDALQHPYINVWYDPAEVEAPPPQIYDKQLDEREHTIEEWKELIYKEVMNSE

[22] = biological target: T19, STK4 (STK4A) (Homo sapiens, UniProt Q13043); assay: DSF Tm panel; format: binding; conditions: 10 μM compound
T19 construct: purchased in-house DSF kinase panel (SGC-style construct names; the trailing letter is the construct ID)
T19 sequence (Q13043 1-311): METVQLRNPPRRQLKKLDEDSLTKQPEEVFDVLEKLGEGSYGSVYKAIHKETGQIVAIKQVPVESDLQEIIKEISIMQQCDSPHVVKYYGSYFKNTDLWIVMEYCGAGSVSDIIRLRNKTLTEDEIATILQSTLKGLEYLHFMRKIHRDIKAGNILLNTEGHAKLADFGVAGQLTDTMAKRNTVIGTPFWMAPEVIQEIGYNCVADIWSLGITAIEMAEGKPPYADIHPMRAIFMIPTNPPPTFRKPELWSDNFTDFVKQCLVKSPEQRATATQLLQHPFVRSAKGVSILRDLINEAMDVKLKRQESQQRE

[23] = biological target: T20, FGFR2A (Homo sapiens, UniProt P21802); assay: DSF Tm panel; format: binding; conditions: 10 μM compound
T20 construct: purchased in-house DSF kinase panel (SGC-style construct names; the trailing letter is the construct ID)
T20 sequence (P21802 458-770): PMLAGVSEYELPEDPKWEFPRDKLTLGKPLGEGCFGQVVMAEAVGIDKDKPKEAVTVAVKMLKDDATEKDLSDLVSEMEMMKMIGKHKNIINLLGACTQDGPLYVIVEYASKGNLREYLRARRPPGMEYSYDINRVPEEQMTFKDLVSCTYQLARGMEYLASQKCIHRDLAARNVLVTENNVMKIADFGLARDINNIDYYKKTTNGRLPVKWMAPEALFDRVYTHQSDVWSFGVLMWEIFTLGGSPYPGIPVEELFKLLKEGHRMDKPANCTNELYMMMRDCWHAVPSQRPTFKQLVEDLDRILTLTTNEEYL

[24] = biological target: T21, SRPK1A (Homo sapiens, UniProt Q96SB4); assay: DSF Tm panel; format: binding; conditions: 10 μM compound
T21 construct: purchased in-house DSF kinase panel (SGC-style construct names; the trailing letter is the construct ID)

Compound	ΔTm at 10 µM [1] [°C]	ΔTm at 10 µM [2] [°C]	ΔTm RPS6KA1A [3]	ΔTm at 10 µM [4] [°C]	ΔTm CDC42BPAA [5]	ΔTm at 10 µM [6] [°C]	ΔTm at 10 µM [7] [°C]	ΔTm at 10 µM [8] [°C]	ΔTm at 10 µM [9] [°C]	ΔTm at 10 µM [10] [°C]	ΔTm at 10 µM [11] [°C]	EC50 [12] [µM]	ΔTm at 10 µM [13] [°C]	ΔTm at 10 µM [14] [°C]	ΔTm at 10 µM [15] [°C]	ΔTm at 10 µM [16] [°C]	ΔTm at 10 µM [17] [°C]	ΔTm at 10 µM [18] [°C]	IC50 [19]	ΔTm at 10 µM [20] [°C]	further results
O=C(NCc1ccc(Cl)cc1Cl)Nc1ccc2cc1OCCOCCNc1ccn3ncc-2c3n1 [compound 20]	0.6	2	0,9 °C	0.5	0,7 °C	0.9	0.8	2.2	0.8	0.6	3	> 50	0.4	6.7	0.9	5.8	1.7	0.4	1.43 ± 0.28 µM	0.5	ΔTm at 10 µM [21]: 1.6 °C; ΔTm at 10 µM [22]: 3.6 °C; ΔTm at 10 µM [23]: 0.9 °C; ΔTm at 10 µM [24]: 0.6 °C
O=C(NCc1ccc(Cl)cc1F)Nc1ccc2cc1OCCOCCNc1ccn3ncc-2c3n1 [compound 21]	0.7	2.6	1,1 °C	1.1	0,4 °C	0	0.3	2.7	0.5	0.4	2.8	> 50	0.5	7.5	0.8	5.7	1.5	0.9	2.62 ± 0.61 µM	0.6	ΔTm at 10 µM [21]: 1.4 °C; ΔTm at 10 µM [22]: 4.9 °C; ΔTm at 10 µM [23]: 2.3 °C; ΔTm at 10 µM [24]: 0.4 °C
Cc1cc(Cl)ccc1CNC(=O)Nc1ccc2cc1OCCOCCNc1ccn3ncc-2c3n1 [compound 23]	2.6	1.5	0,8 °C	-0.3	0,6 °C	0.4	0.8	1	0.3	0.7	2.3	> 50	0.5	5.9	1.7	3.5	2.4	0.8	0.85 µM and < 1 µM	0.5	ΔTm at 10 µM [21]: 1 °C; ΔTm at 10 µM [22]: 7.4 °C; ΔTm at 10 µM [23]: 1.9 °C; ΔTm at 10 µM [24]: 0.2 °C
Cc1cc(Br)ccc1CNC(=O)Nc1ccc2cc1OCCOCCNc1ccn3ncc-2c3n1 [compound 24]	0.4	1.9	0,1 °C	0.4	0,7 °C	0.5	0.7	1.4	2	1.6	0.5	> 50	0.2	6.7	2.2	2.9	0.8	1	4.62 ± 0.88 µM	0.5	ΔTm at 10 µM [21]: 0.5 °C; ΔTm at 10 µM [22]: 2.8 °C; ΔTm at 10 µM [23]: 2.2 °C; ΔTm at 10 µM [24]: -0.2 °C
Cc1ccc(F)cc1CNC(=O)Nc1ccc2cc1OCCOCCNc1ccn3ncc-2c3n1 [compound 26]	0.8	1.9	0,3 °C	1.2	0,2 °C	0.5	0.8	0.9	2.7	1.6	1	> 50	0.3	9.1	2.4	3.2	0.2	0.5	3.53 ± 0.57 µM	0.3	ΔTm at 10 µM [21]: 0.5 °C; ΔTm at 10 µM [22]: 3.1 °C; ΔTm at 10 µM [23]: 3.5 °C; ΔTm at 10 µM [24]: 0 °C
